{
  "source": "patent US11642345B2",
  "about": "“Replication stress pathway agent compositions and methods for treating cancer” (Boundless Bio, Inc., priority 2020, dated 2023)",
  "key": {"[1]": {"test_system": "Calu-3 cells", "assay": "5 day viability assay, CellTiter-Glo 2.0", "assay_type": "cell-based", "conditions": "Homo sapiens, Calu3, ERBB2 amplification, Chromosomal, read-out: 3-5 day acute cytotoxicity EC50", "experimental": "(§1) For these long-term growth curves, the EC50 of targeted therapy was first determined in short term 5 day viability assays. To determine the EC50 of irbinitinib, H2170 cells were plated at 3000 cell/well in a 96-well plate; SKBR3 and Calu-3 cells were plated at 3500 cells/well in a 96-well plate. All cells were dosed with irbinitinib continuously for 5 days (serial dilutions ranging from 12 nM to 1 uM) along with a DMSO control. EC50 curves were determined based on cell viability using CellTiter-Glo 2.0 reagent (Promega). […]"}, "[2]": {"test_system": "H2170 cells", "assay": "5 day viability assay, CellTiter-Glo 2.0", "assay_type": "cell-based", "conditions": "Homo sapiens, NCI-H2170", "experimental": "as §1"}, "[3]": {"test_system": "SKBR3 cells", "assay": "5 day viability assay, CellTiter-Glo 2.0", "assay_type": "cell-based", "conditions": "Homo sapiens, SK-BR-3; SKBP3, ERBB2 amplification, Chromosomal; read-out: 3-5 day acute cytotoxicity EC50", "experimental": "as §1"}, "[4]": {"test_system": "Calu-3 cells", "assay": "Long-term growth curves under targeted inhibitor", "assay_type": "cell-based", "conditions": "Calu3, ERBB2 Chromosomal; 2× then 4× the relative EC50, 6 weeks", "experimental": "(§2) To measure growth kinetics over time, each cell line was treated once or twice per week with targeted inhibitor against the amplified oncogene."}, "[5]": {"test_system": "SKBR3 cells", "assay": "Long-term growth curves under targeted inhibitor", "assay_type": "cell-based", "conditions": "SKBP3, ERBB2 Chromosomal; 2× then 4× the relative EC50, 6 weeks", "experimental": "as §2"}, "[6]": {"test_system": "MYC, FGFR2, and EGFR copy number in SNU16 cells", "assay": "qPCR gene copy number in SNU16 cells during infigratinib treatment", "assay_type": "cell-based, human", "conditions": "1 μM infigratinib for 9 weeks", "description": "The SNU16 cells were treated with 1 μM of an FGFR inhibitor (infigratinib) for 9 weeks. DNA was collected at days 3, 14, 28, 42, 56, and 63 days and qPCR was performed to assess copy number for MYC. FGFR2, and EGFR at each time point. Cells after 8 weeks of infigratinib treatment and untreated SNU16 control cells were also assayed by FISH for EGFR.\nTo assess ecDNA copy number dynamics throughout the development of infigratinib resistance, DNA was extracted using the QIAamp DNA Mini Kit (Qiagen) and the DNA was amplified via quantitative PCR (qPCR) using Taqman copy number assays (ThermoFisher). The EGFR Taqman assay ID was Hs00997424_cn; GFGR2 assay ID was Hs05182482_cn; and the MYC assay ID was Hs03660964_cn. The cycle threshold values were normalized to the internal RNase P Taqman assay, and gene copy number was calculated using the ΔΔCt method and the DNA from a diploid control cell line, DLD1.\nMethods: SNU16 control cells were cultured in RPMI-1640 media with 10% FBS under standard tissue culture conditions at 37° C. and with 5% CO2. Low passage control cells were treated with 1 μM infigratinib over the course of 9 weeks. Cells were passaged as needed and media and infigratinib were replaced at least once per week. DNA was collected at day 3 and weeks 2, 4, 6, 8 and 9. Cells in metaphase were collected at 8 weeks from both control and infigratinib-resistant cells."}, "[7]": {"test_system": "SNU16 cells", "assay": "Long-term cell growth / resistance development in SNU16 cells", "assay_type": "cell-based, human", "conditions": "for cell growth / resistance formation: 9 weeks", "experimental": "Each treatment arm was terminated once the cell number reached 5×10^6.\nSNU16 cells were subdivided into five groups and each group of 1×10^6 cells was subjected to treatment with 1 μM infigratinib, 1 μM erlotinib, 1 μM infigratinib and 1 μM erlotinib, 0.1 μM adavosertib and cell growth was recorded over 9 weeks.\nSNU16 cells were subdivided into five groups and each group of 1×10^6 cells was subjected to treatment with infigratinib, erlotinib, PD00017273, infigratinib and erlotinib, or infigratinib and PD00017273 and cell growth was recorded over 9 weeks.\nSNU16 (CRL-5974) cell line was purchased from ATCC. SNU16 cells were grown in RPMI 1640 medium (Fisher Scientific) with 10% FBS and 100 U/ml penicillin/streptomycin (Fisher Scientific). For the resistance experiments, SNU16 cells were plated at 2 million per T75 flask and were treated with either 1 μM infigratinib (Selleck Chemicals), 1 μM erlotinib (Selleck Chemicals), 10 nM gemcitabine (Sigma Aldrich), or a combination. The media was changed and fresh drug was added at least once per week. The cells were counted over the span of several weeks to measure cell growth."}, "[8]": {"test_system": "infigratinib-resistant SNU16 cells", "assay": "Secondary resistance, cell growth of infigratinib-resistant SNU16 cells over 5 weeks", "assay_type": "cell-based, human", "conditions": "FIG. 26, 1 uM infigratinib, 1 uM erlotinib, 10 nM gemcitabine", "experimental": "The infigratinib-resistant SNU16 cells (generated as shown in FIG. 25) were subdivided into six groups and each group of 1×10^6 cells was subjected to treatment with 1 uM infigratinib, 1 uM erlotinib, 10 nM gemcitabine, or 1 uM erlotinib+10 nM gemcitabine and the cell growth was recorded over 5 weeks. Each treatment arm was terminated once the cell number reached 5×10^6."}, "[9]": {"test_system": "SNU16 cells", "assay": "5 day viability assay, CellTiter-Glo 2.0", "assay_type": "cell-based", "conditions": "Homo sapiens, SNU-16"}, "[10]": {"test_system": "KATOIII cells", "assay": "5 day viability assay, CellTiter-Glo 2.0", "assay_type": "cell-based", "conditions": "Homo sapiens, KATO III"}, "[11]": {"test_system": "KATOIII cells", "assay": "Long-term growth curves under targeted inhibitor", "assay_type": "cell-based", "conditions": "infigratinib at EC90 (1 uM), 11 weeks", "experimental": "as §2"}, "[12]": {"test_system": "SNU16 cells", "assay": "Long-term growth curves under targeted inhibitor", "assay_type": "cell-based, human", "conditions": "infigratinib at EC90 (1 uM), 6 weeks", "experimental": "as §2"}},
  "data": [
    {"smiles": "Cc1cc(Nc2ncnc3ccc(NC4=NC(C)(C)CO4)cc23)ccc1Oc1ccn2ncnc2c1", "note": "[irbinitinib]", "values": [
      {"measurement": "EC50", "setting": "[1]", "value": 414, "unit": "nM"},
      {"measurement": "EC90", "setting": "[2]", "value": 500, "unit": "nM"},
      {"measurement": "EC50", "setting": "[2]; H2170, ERBB2 amplification, ecDNA, read-out: 3-5 day acute cytotoxicity EC50", "value": 110, "unit": "nM"},
      {"measurement": "EC50", "setting": "[3]", "value": 43, "unit": "nM"},
      {"measurement": "Long-term culture growth properties", "setting": "[4]", "value": "Reduced proliferation"},
      {"measurement": "Long-term culture growth properties", "setting": "[5]", "value": "<1", "unit": "% viability >6 weeks"}
    ]},
    {"smiles": "CCN1CCN(c2ccc(Nc3cc(N(C)C(=O)Nc4c(Cl)c(OC)cc(OC)c4Cl)ncn3)cc2)CC1", "note": "[infigratinib]", "values": [
      {"measurement": "copy number for MYC and FGFR2", "setting": "[6]", "value": "remained relatively constant"},
      {"measurement": "copy number of EGFR", "setting": "[6]", "value": "increased"},
      {"measurement": "cell growth / development of primary resistance", "setting": "[7]; FIG. 25, 12 weeks, 1 uM infigratinib, 1 uM erlotinib, 10 nM gemcitabine", "value": "strongly suppressed cell growth for 5 weeks, after which cells developed resistance and grew rapidly"},
      {"measurement": "cell growth / resistance formation", "setting": "[7]; FIG. 30, 1 μM infigratinib, 1 μM erlotinib, 0.1 μM adavosertib", "value": "transient growth suppression"},
      {"measurement": "cell growth / resistance formation", "setting": "[7]; FIG. 34", "value": "transient growth suppression for approximately 3 weeks"},
      {"measurement": "cell growth / development of secondary resistance", "setting": "[8]", "value": "no effect on cell growth on its own"},
      {"measurement": "EC90", "setting": "[9]; SNU16", "value": 1000, "unit": "nM"},
      {"measurement": "EC50", "setting": "[9]; SNU16, ecDNA, read-out: 3-5 day acute cytotoxicity EC50", "value": 14, "unit": "nM"},
      {"measurement": "EC90", "setting": "[10]", "value": 1000, "unit": "nM"},
      {"measurement": "EC50", "setting": "[10]; Chromosomal, read-out: 3-5 day acute cytotoxicity EC50", "value": 13, "unit": "nM"},
      {"measurement": "Long-term culture growth properties", "setting": "[11]", "value": "<1", "unit": "viability >10 weeks"},
      {"measurement": "Long-term culture growth properties", "setting": "[12]", "value": "Near normal"}
    ]}
  ]
}
